Here are results for 1 molecule from article PMC11324436 (2024).

What all share (assay): NMM fluorescence enhancement
Experiment [1] concerns Oligo 5637 (DNA, single strand) GCCTGTTGTGAGCCTCCTGTCGAAGTATGCGATAGGAGCGAATGATATATATCAAGTTACCACACGGATGTACTTGCTTGAGCGTTTATTCTTGTCTCCC
Particulars: 10 mM KCl, 2 mM MgSO4 (added), 0.37 mM CaCl2; SSMB1 pH 5.9, 23 °C; 2 µM aptamer, 2 µM NMM; no enhancement over control.

In experiment [2] the test system is 55PYO2A (DNA, aptamer) CTAGGAATCAGGAGCGAATGTTAGAGTATTTGGATAGTATGTTTATTGTATCGGC
Particulars: 10 mM KCl, 2 mM MgSO4 (added), 0.37 mM CaCl2; SSMB1 pH 5.9, 23 °C; 2 µM aptamer, 2 µM NMM; no enhancement over control.

Experiment [3] relates to 55PYO4A (DNA, aptamer) GATCGGAATGGGAGCGAATGAGGAGGGAGCGCGGACATGGTGCAGCAGCCCGACG
Particulars: 10 mM KCl, 2 mM MgSO4 (added), 0.37 mM CaCl2; SSMB1 pH 5.9, 23 °C; 2 µM aptamer, 2 µM NMM.

Experiment [4] has as its system 15THR1A (DNA, aptamer) GGTTGGTGTGGTTGG
Particulars: 10 mM KCl, 2 mM MgSO4 (added), 0.37 mM CaCl2; SSMB1 pH 5.9, 23 °C; 2 µM aptamer, 2 µM NMM.

Consider `CCc1c(C)c2cc3nc(cc4nc(cc5c(CC)c(C)c(cc1[nH]2)n5C)C(C)=C4CCC(=O)O)C(CCC(=O)O)=C3C`, for which the binding entry in experiment [1] was “no”; in experiment [2], “no”; in experiment [3], “yes”; in experiment [4] it was “yes”.
